# Experimental data published in the supplement of paper PMC6723410.
# System: GUMC-403
# Experiment: viability at highest tested concentration (max response) relative to DMSO (% of DMSO control); higher = less cytotoxic
# Settings: library / dose series: MIPE library, 11-point 1:3 dilution; top concentration 23 µM; 48 h
# Procedure, shortened: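 GUMC-403 papilloma cells, derived from a patient and expanded by conditional reprogramming, were dispensed at 700/well into 1536-well plates in 5 μL F + Y medium. A pin tool delivered 23 nL of each compound across an 11-point 1:3 dilution series for 48 h. CellTiter-Glo luminescence, read on a ViewLux, was normalised so that vehicle wells equalled 100% and empty wells 0%. Values report viability at the highest tested concentration relative to vehicle control.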
row,SMILES,viability
1,CC[C@@]1([C@@H]2O[C@@H]([C@H]3O[C@@](O)(CO)[C@H](C)C[C@@H]3C)C[C@@H]2C)CC[C@H]([C@]2(C)CC[C@]3(C[C@H](O)[C@@H](C)[C@@H]([C@@H](C)[C@@H](OC)[C@H](C)C(=O)[O-])O3)O2)O1,116
2,O=C1NC(=O)/C(=C/c2ccc3nccnc3c2)S1,49.8

# Same assay, conditions: library / dose series: MIPE library, 11-point 1:3 dilution; top concentration 46.1 µM; 48 h
row,SMILES,viability
1,CN(C)NC(=O)CCC(=O)O,101
2,CC(C)(Cc1ccc2ccccc2c1)NC[C@@H](O)COc1cccc(Cl)c1C#N,106
3,Cc1c(NC(=O)OC[C@@H]2COCCN2)cn2ncnc(Nc3ccc4c(cnn4Cc4cccc(F)c4)c3)c12,75.8
4,COC1=CC2=C(C=C1CC3=C(F)C(=CC=C3)Cl)C(=O)\C(=C/N2[C@H](CO)C(C)C)C(O)=O,124
5,N#Cc1ccc(C(c2ccc(C#N)cc2)n2cncn2)cc1,95.7
6,CCOC(=O)/C=C/[C@H](C[C@@H]1CCNC1=O)NC(=O)[C@@H](CC(=O)[C@@H](NC(=O)c1cc(C)on1)C(C)C)Cc1ccc(F)cc1,142
7,CCCn1c(=O)c2[nH]c(C34CC5CC3C[C@@H](C5)C4)nc2n(CCC)c1=O,122
8,N=C(N)NC(=N)NCCc1ccccc1,83.9
9,Cc1ccc(Nc2cc(-c3cccc(N4C(=O)c5ccccc5C4=O)c3)ncn2)cc1N[S+](C)(=O)[O-],117
10,NCC/1=C/NC(=S)N1[C@H]2CCC3=C(F)C=C(F)C=C3C2,95.9
11,Cl.O[C@@H](CNC[C@H](O)[C@H]1CCc2cc(F)ccc2O1)[C@@H]1CCc2cc(F)ccc2O1,95.8
12,O=C(O)c1cccnc1Nc1cccc(C(F)(F)F)c1,129
13,COc1cc(Cl)cn2c(-c3cccc(NC4CNC4)n3)cnc12,133
14,c1ccc2c(CCNc3ccc(Nc4ccncc4)cc3)c[nH]c2c1,108
15,CNC(=O)c1ccc(N2C(=S)N(c3ccc(C#N)c(C(F)(F)F)c3)C(=O)C23CCC3)cc1F,81.8
16,O=C(c1ccc(C(=O)N2CCC(N3CCCC3)CC2)c(Nc2ccccc2)c1)N1CCC(N2CCCC2)CC1,109
17,Cc1onc(-c2ccccc2)c1C(=O)N[C@@H]1C(=O)N2[C@@H]1SC(C)(C)[C@@H]2C(=O)[O-].[Na+],109
18,CCC(=O)N[C@H]1CC[C@H](C(=O)N(C)c2ccc(-c3nc4ccccc4o3)cc2)C1,84.8
19,C[C@@H]1[C@H](O)[C@@H](C)C=CC=CCCC=CC=CC=CC=C[C@H](O[C@H]2O[C@@H](C)[C@H](O)[C@@H](N)[C@H]2O)CC2O[C@](O)(C[C@@H](O)[C@H](O)CC[C@@H](O)C[C@@H](O)C[C@@H](O)CC(=O)O[C@H]1C)C[C@H](O)[C@H]2C(=O)O,115
20,OC(=O)\C1=C\N(C2=CC=C(F)C=C2)C3=C(C=C(F)C(=C3)N4CCNCC4)C1=O,120
21,COCC(=O)NC/C=C/c1ccc2ncnc(Nc3ccc(Oc4ccc(C)nc4)c(C)c3)c2c1,98.1
22,FC1=CC=C(CN2\C=C/C=C(/C(=O)N[C@@H](COC3=CC4=C(NC(=O)N4)C=C3)C5=CC=CC=C5)C2=O)C=C1F,103
23,Cc1ccc(C(=O)Nc2cccc(C(F)(F)F)c2)cc1-c1ccc2nc(NCCN3CCOCC3)ncc2c1,55.5
24,O=C(NOCC(O)CO)c1cc(Br)c(F)c(F)c1Nc1ccc(I)cc1F (configuration not stated),62.8
25,C[N]1C=C(C2=C1C=CC=C2)\C3=C(\C(=O)NC3=O)C4=C5CC(CN)CC[N]5C6=C4C=CC=C6 (configuration not stated),42.9

row,SMILES,viability
1,Cc1cccc(Nc2ccncc2[S+](=O)([O-])NC(=O)NC(C)C)c1,108
2,O=C1NC(=O)/C(=C\c2ccc(-c3ccc(F)cc3)o2)S1,106
3,Cn1cc(-c2ccncc2)c(-c2ccc(OCc3ccc4ccccc4n3)cc2)n1,98.3
4,O=C1NC(=O)/C(=C/c2ccc3c(c2)OC(F)(F)O3)S1,94
5,O=C(Nc1ccccc1-c1cn2c(CN3CCNCC3)csc2n1)c1cnc2ccccc2n1,81.3
6,Nc1cccc([S+](=O)([O-])N2CCCN([S+](=O)([O-])c3ccc4c(c3)OCCO4)CC2)c1,87
7,COc1cc(F)c(C(C)C)cc1-c1ccc(C(F)(F)F)cc1CN1C(=O)O[C@H](c2cc(C(F)(F)F)cc(C(F)(F)F)c2)[C@@H]1C,100
8,CN1CCC(CC1)=C2C3=C(C=CC=C3)\C=C/C4=C2C=CC=C4,111
9,CCOc1cc(/C=C2/C(=O)N(c3ccccc3)N=C2C)cc(Cl)c1OCC(=O)OC,99.2
10,C[C@]\12CC[C@H](O)CC1=C/CC3C2CC[C@@]\4(C)C3C\C=C4[N]5C=NC6=C5C=CC=C6 (some centres not stated),108
11,COc1cc(N[S+](=O)([O-])c2ccc(N)cc2)nc(OC)n1,142
12,CCC(C1CCC(C)C(O1)C(C)C(O)C(C)C(=O)C(CC)C2OC\3(O[C@]4(CC[C@@](C)(O4)C5CC[C@@](O)(CC)C(C)O5)C(O)\C=C3)C(C)CC2C)C([O-])=O (some centres not stated),76
13,O=C(O)c1ccc(-n2nc(-c3ccccc3O)nc2-c2ccccc2O)cc1,80.9
14,COc1cc2c(cc1OC)CC(=O)N(CCCN(C)C[C@H]1Cc3cc(OC)c(OC)cc31)CC2.Cl,129
15,C[C@H](CCC(=O)O)[C@H]1CC[C@H]2[C@@H]3[C@H](O)C[C@@H]4C[C@H](O)CC[C@]4(C)[C@H]3CC[C@]12C,128
16,CN1CCCN(C(=O)c2cccc(-c3ccc(/C=C4/C(=O)Nc5ccc(Cl)cc54)o3)c2)CC1,97.7
17,CCCN[S+](=O)([O-])Nc1ncnc(OCCOc2ncc(Br)cn2)c1-c1ccc(Br)cc1,122
18,CC(=O)Nc1ccc(OC[C@](C)(O)C(=O)Nc2ccc([N+](=O)[O-])c(C(F)(F)F)c2)cc1,88.4
19,NC/1=N/C(=O)N(/C=C1F)[C@H]2CS[C@H](CO)O2,115
20,O=[N+]([O-])c1ncc[nH]1,82.9
21,Cc1c(C(=O)Nc2cccc(C(F)(F)F)c2)cc(-c2ccccc2)n1CCCN1CCOCC1,98.9
22,CCCCCCCCc1ccc(CCC(N)(CO)CO)cc1,90.9
23,Cc1ccc(F)c(NC(=O)Nc2ccc(-c3cccc4[nH]nc(N)c34)cc2)c1,50.7
24,NC(=O)c1cccc(-c2cccc(OC(=O)NC3CCCCC3)c2)c1,104
25,O=C(O)[C@@H](c1ccc(OCc2ccc3ccccc3n2)cc1)C1CCCC1,108

row,SMILES,viability
1,COC(=O)C1=C(C)NC(C)=C(C(=O)OCCN2CCN(C(c3ccccc3)c3ccccc3)CC2)C1c1cccc([N+](=O)[O-])c1.Cl.Cl (configuration not stated),86.5
2,CCC[S+](=O)([O-])Nc1ccc(F)c(C(=O)c2c[nH]c3ncc(Cl)cc23)c1F,79.1
3,CC(=O)N[C@H]1[C@H](O[C@@H]2c3ccc(c(Cl)c3)Oc3cc4cc(c3O[C@@H]3O[C@H](CO)[C@@H](O)[C@H](O)[C@H]3NC(=O)CCCCCCCC(C)C)Oc3ccc(cc3Cl)C[C@H]3NC(=O)[C@H](N)c5ccc(O)c(c5)Oc5cc(O)cc(c5)[C@H](NC3=O)C(=O)N[C@H]4C(=O)N[C@H]3C(=O)N[C@@H]2C(=O)N[C@@H](C(=O)O)c2cc(O)cc(O[C@H]4O[C@H](CO)[C@@H](O)[C@H](O)[C@@H]4O)c2-c2cc3ccc2O)O[C@H](CO)[C@@H](O)[C@@H]1O,121
4,COC1=C(CC=C(C)C)C2=C(\C=C/C(=O)O2)C=C1,92
5,O=C(O)CCCCC(CCSCc1ccccc1)SCc1ccccc1 (configuration not stated),130
6,N[C@@H](Cc1ccc(O)c(O)c1)C(=O)O,133
7,CN(C)C/C=C/C(=O)Nc1cc2c(Nc3ccc(F)c(Cl)c3)ncnc2cc1O[C@H]1CCOC1,41.7
8,Cc1cn2c(-c3cn[nH]c3)cnc2c(Nc2ccc(C(=O)N3CCNCC3)cc2F)n1,60.9
9,Nc1ncnc2nc(-c3ccc(N4CCOCC4)nc3)cc(-c3cccc(Br)c3)c12,110
10,CCN(CC)CCOc1ccc(/C(=C(\Cl)c2ccccc2)c2ccccc2)cc1,114
11,CC(CCc1ccc(O)cc1)NCCc1ccc(O)c(O)c1 (configuration not stated),105
12,C[C@@H](c1ncncc1F)[C@](O)(Cn1cncn1)c1ccc(F)cc1F,96.3
13,CNC(=O)c1ccc2cc(C3(O)CCn4cncc43)ccc2c1 (configuration not stated),106
14,O=C(CCCCCCNC(=O)c1cnc(N(c2ccccc2)c2ccccc2)nc1)NO,117
15,CC(C)(C)[C@]1(O)C[C@@H]2OC(=O)C[C@@]23C(=O)O[C@@H]2OC(=O)[C@H](O)C213 (some centres not stated),99.4
16,COC(c1ccccc1)(c1ccccc1)[C@H](Oc1nc(C)cc(C)n1)C(=O)O,136
17,NC(=O)Cc1cccc(C(=O)c2ccccc2)c1N,112
18,OC[C@H]1O[C@@H](O[C@@H]2[C@@H](CO)O[C@](O)(CO)[C@H]2O)[C@H](O)[C@@H](O)[C@H]1O,95.3
19,CNC(=O)c1ccc2c(c1)NC(=O)/C2=C(\Nc1cccc(CN(C)C)c1)c1ccccc1,107
20,CC(C)C[C@@H](N)[C@H](O)C(=O)N[C@H](C(=O)N[C@H](C(=O)N[C@@H](CC(=O)O)C(=O)O)C(C)C)C(C)C,85.7
21,CCN(CCO)CCCOc1ccc2c(Nc3cc(CC(=O)Nc4cccc(F)c4)[nH]n3)ncnc2c1,105
22,Clc1ccc(-c2nc3sccn3c2/C=N/OCc2ccc(Cl)c(Cl)c2)cc1,85.8
23,Cc1c[nH]c(/C=C2\C(=O)Nc3ccccc32)c1CCC(=O)O,136

# Same assay, conditions: library / dose series: MIPE library, 11-point 1:3 dilution; top concentration 92.2 µM; 48 h
row,SMILES,viability
1,C[Se]CCC(N)C(=O)O (configuration not stated),98
2,O=C(O)c1cc(O)c2c(c1)C(=O)c1cccc(O)c1C2=O,110
